EC50 and Max activity data for nine compounds are collected here from patent US20250282757A1, “ARYL ETHER-SUBSTITUTED HETEROCYCLIC COMPOUNDS AS GLP1R AGONISTS” (MINDRANK AI LTD., priority 2021, published 2025).

pEC50: −log10 of the molar value.

This assay deals with GLP-1R (Homo sapiens, UniProt P43220). In words: Agonist activity on GLP-1R, HTRF cAMP detection in stably transfected GLP-1R/HEK293 cells. To be noted: for pEC50: 30 min incubation; for Max activity: relative to top concentration of reference GLP-1(7-37). Format: cell-based. The protocol: Detection of Agonist Activity of the Test Compounds on GLP-1R
GLP-1R, sequence (P43220 24-463): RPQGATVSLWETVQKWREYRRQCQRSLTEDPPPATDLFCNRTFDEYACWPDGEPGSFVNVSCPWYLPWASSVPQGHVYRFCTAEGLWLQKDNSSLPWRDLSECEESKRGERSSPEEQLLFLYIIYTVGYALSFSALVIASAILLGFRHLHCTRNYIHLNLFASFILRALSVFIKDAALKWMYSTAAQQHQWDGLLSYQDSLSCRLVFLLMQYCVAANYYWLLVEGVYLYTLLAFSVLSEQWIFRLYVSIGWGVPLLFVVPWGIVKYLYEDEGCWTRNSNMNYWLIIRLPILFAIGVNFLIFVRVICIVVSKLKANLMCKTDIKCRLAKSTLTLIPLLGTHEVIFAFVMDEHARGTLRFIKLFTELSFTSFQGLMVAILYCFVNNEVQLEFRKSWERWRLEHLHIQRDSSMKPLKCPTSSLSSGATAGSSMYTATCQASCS
• 1) The test compound was dissolved in DMSO and diluted 4-fold with Bravo for a total of 10 concentration gradients (the starting concentration was 1 mM). […] HBSS (10 mL) pre-warmed at 37° C. was added, mixed gently, and centrifuged at 1000 rpm for 5 minutes. The supernatant was discarded and another 10 mL of […] was added and mixed gently. […] The plate was shaken to mix at 2000 rpm for 60 seconds. • 7) The cells in the 384-well plate were incubated in CO2 cell incubator at 37° C. for 30 min. • 8) 10 μL of HTRF cAMP detection solution was added to the 384-well plate, stick with sealing film, and incubated at room temperature for 1 hour. • 9) After 1 hour of incubation, the sealing film was removed. The plate was put into the EnVision microplate reader to read the values of OD665 nm and OD615 nm.
(In general: TR-FRET usually uses a lanthanide donor and a delayed reading to cut background.)

With `CCn1cncc1Cn1c(CN2CCC(Oc3cccc(COc4ccc(C#N)cc4F)n3)CC2)nc2ccc(C(=O)O)cc21` [Compound 1, 2-((4-((6-((4-cyano-2-fluorophenoxy)methyl)pyridin-2-yl)oxy)piperidin-1-yl)methyl)-1-((1-ethyl-1H-imidazol-5-yl)methyl)-1H-benzo[d]imidazole-6-carboxylic acid], the pEC50 – broadly, the negative decadic logarithm of the EC50, by convention in mol/L – was 10.06 and the Max activity was found to be 116.8%.
Turning to `CCn1cncc1Cn1c(CN2CCC(Oc3cccc(COc4ccc(C#N)cc4F)n3)CC2)nc2c(F)cc(C(=O)O)cc21` [Compound 2, 2-((4-((6-((4-cyano-2-fluorophenoxy)methyl)pyridin-2-yl)oxy)piperidin-1-yl)methyl)-1-((1-ethyl-1H-imidazol-5-yl)methyl)-4-fluoro-1H-benzo[d]imidazole-6-carboxylic acid], the negative-log EC50 (pEC50) is 10.28 and the Max activity is 98.6%.
For `CCn1cncc1Cn1c(CN2CCC(Oc3ccc(F)c(COc4ccc(C#N)cc4F)n3)CC2)nc2ccc(C(=O)O)cc21` [Compound 3, 2-((4-((6-((4-cyano-2-fluorophenoxy)methyl)-5-fluoropyridin-2-yl)oxy)piperidin-1-yl)methyl)-1-((1-ethyl-1H-imidazol-5-yl)methyl)-1H benzo[d]imidazole-6-carboxylic acid], in that order: 9.50 and 128.3%.
In the case of `CCn1cncc1Cn1c(CN2CCC(Oc3cccc(COc4ccc(C#N)cc4F)n3)CC2)nc2ccc(C(=O)O)nc21` [Compound 6, 2-((4-((6-((4-cyano-2-fluorophenoxy)methyl)pyridin-2-yl)oxy)piperidin-1-yl)methyl)-3-((1-ethyl-1H-imidazol-5-yl)methyl)-3H-imidazo[4,5-b]pyridine-5-carboxylic acid], the negative-log EC50 (pEC50) was 9.88 and the Max activity came to 114.8%.
For `CCn1cncc1Cn1c(CN2CCC(Oc3cccc(COc4ccc(Cl)cc4F)c3)CC2)nc2ccc(C(=O)O)cc21` [Compound 7, 2-((4-(3-((4-chloro-2-fluorophenoxy)methyl)phenoxy)piperidin-1-yl)methyl)-1-((1-ethyl-1H-imidazol-5-yl)methyl)-1H-benzo[d]imidazole-6-carboxylic acid], the pEC50 is 9.84 and the Max activity turned out to be 91.3%.
For `CCn1cncc1Cn1c(CN2CCC(Oc3cccc(COc4ccc(C#N)cc4F)c3)CC2)nc2ccc(C(=O)O)cc21` [Compound 13, 2-((4-(3-((4-cyano-2-fluorophenoxy)methyl)phenoxy)piperidin-1-yl)methyl)-1-((1-ethyl-1H-imidazol-5-yl)methyl)-1H-benzo[d]imidazole-6-carboxylic acid], in that order: 9.94 and 99.4%.
For `CCn1cncc1Cn1c(CN2CCC(Oc3cccc(COc4ccc(Cl)cc4F)n3)CC2)nc2ccc(C(=O)O)cc21` [Compound 43, 2-((4-((6-((4-chloro-2-fluorophenoxy)methyl)pyridin-2-yl)oxy)piperidin-1-yl)methyl)-1-((1-ethyl-1H-imidazol-5-yl)methyl)-1H-benzo[d]imidazole-6-carboxylic acid], in that order: 9.96 and 109.7%.
For `N#Cc1ccc(OCc2cccc(OC3CCN(Cc4nc5ccc(C(=O)O)nc5n4C[C@@H]4CCO4)CC3)n2)c(F)c1` [Compound 60, (S)-2-((4-((6-((4-cyano-2-fluorophenoxy)methyl)pyridin-2-yl)oxy)piperidin-1-yl)methyl)-3-(oxetan-2-ylmethyl)-3H-imidazo[4,5-b]pyridine-5-carboxylic acid], the pEC50 is 9.34 and the Max activity was found to be 112.0%.
Take `N#Cc1ccc(OCc2cccc(OC3CCN(Cc4nc5ccc(C(=O)O)cc5n4C[C@@H]4CCO4)CC3)c2)c(F)c1` [Compound 67, (S)-2-((4-(3-((4-cyano-2-fluorophenoxy)methyl)phenoxy)piperidin-1-yl)methyl)-1-(oxetan-2-ylmethyl)-1H-benzo[d]imidazole-6-carboxylic acid]: the pEC50 was 8.96 and the Max activity worked out at 106.4%.
